Columns and labels:
[1] = biological target: Metallo-beta-lactamase type 2 (Klebsiella pneumoniae) (UniProt C7C422); assay: Inhibition of NDM1 in Klebsiella pneumoniae IR43 clinical isolate assessed as potentiation of meropenem-induced antibacterial activity by measuring meropenem MIC at 8 ug/ml by broth microdilution method (Rvb > 64 ug/ml)
[2] = Inhibition of recombinant Escherichia coli OXA-10 assessed as reduction in breakdown of cephalosporin FC-5 in presence of 100 mM NaHCO3 by fluorescence method
Escherichia coli [3] = assay: Inhibition of NDM1 in Escherichia coli 91N clinical isolate assessed as potentiation of meropenem-induced antibacterial activity by measuring meropenem MIC at 8 ug/ml by broth microdilution method (Rvb > 64 ug/ml)
[4] = biological target: Metallo-beta-lactamase type 2 (Klebsiella pneumoniae) (UniProt C7C422); assay: Inhibition of NDM1 in Klebsiella pneumoniae B68-1 clinical isolate assessed as potentiation of meropenem-induced antibacterial activity by measuring meropenem MIC at 8 ug/ml by broth microdilution method (Rvb > 64 ug/ml)
[5] = Inhibition of recombinant bacterial OXA-10 expressed in Escherichia coli assessed as reduction in breakdown of cephalosporin FC-5 by fluorescence method; design: species or system Bacteria
[6] = biological target: Metallo-beta-lactamase type 2 (Klebsiella pneumoniae) (UniProt C7C422); assay: Inhibition of NDM1 in Klebsiella pneumoniae B64 clinical isolate assessed as potentiation of meropenem-induced antibacterial activity by measuring meropenem MIC at 8 ug/ml by broth microdilution method (Rvb > 64 ug/ml)
Escherichia coli [7] = assay: Inhibition of NDM1 in Escherichia coli IR57 clinical isolate assessed as potentiation of meropenem-induced antibacterial activity by measuring meropenem MIC at 8 ug/ml by broth microdilution method (Rvb > 64 ug/ml)
Escherichia coli [8] = assay: Inhibition of NDM1 in Escherichia coli S117 clinical isolate assessed as potentiation of meropenem-induced antibacterial activity by measuring meropenem MIC at 8 ug/ml by broth microdilution method (Rvb > 64 ug/ml)
Bacteria = assay: Inhibition of bacterial expressed in Escherichia coli OXA-10 assessed as reduction in breakdown of cephalosporin FC-5 at 400 uM by fluorescence method
[9] = Inhibition of recombinant bacterial CphA expressed in Escherichia coli assessed as reduction in hydrolysis of meropenem by UV spectrophotometeric analysis; design: species or system Bacteria
[10] = Inhibition of recombinant bacterial IMP-1 expressed in Escherichia coli assessed as reduction in breakdown of cephalosporin FC-5 by fluorescence method; design: species or system Bacteria
[11] = Inhibition of recombinant Stenotrophomonas maltophilia K279a L1 expressed in Escherichia coli using FC-5 as substrate by fluorescence method
[12] = Inhibition of recombinant bacterial VIM-1 expressed in Escherichia coli assessed as reduction in breakdown of cephalosporin FC-5 by fluorescence method; design: species or system Bacteria
[13] = Inhibition of recombinant bacterial KPC-2 expressed in Escherichia coli assessed as reduction in breakdown of cephalosporin FC-5 by fluorescence method; design: species or system Bacteria
[14] = Inhibition of recombinant Escherichia coli OXA-48 assessed as reduction in breakdown of cephalosporin FC-5 in presence of 100 mM NaHCO3 by fluorescence method
[15] = Inhibition of recombinant bacterial NDM-1 expressed in Escherichia coli assessed as reduction in breakdown of cephalosporin FC-5 by fluorescence method; design: species or system Bacteria

Metallo-beta-lactamase type 2 (Klebsiella pneumoniae), sequence (C7C422 whole entry): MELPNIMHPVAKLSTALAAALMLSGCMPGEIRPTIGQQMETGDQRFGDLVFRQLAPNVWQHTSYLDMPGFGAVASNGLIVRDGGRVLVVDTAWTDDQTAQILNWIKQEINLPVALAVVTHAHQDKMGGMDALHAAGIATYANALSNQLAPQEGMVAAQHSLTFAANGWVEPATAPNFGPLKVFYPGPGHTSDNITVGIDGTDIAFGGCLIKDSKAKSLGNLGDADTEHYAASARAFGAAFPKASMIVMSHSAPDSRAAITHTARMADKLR

| Structure (SMILES) | MIC [1] [µg/mL] | IC50 [2] [µM] | MIC (Escherichia coli [3]) [µg/mL] | MIC [4] [µg/mL] | IC50 [5] [µM] | MIC [6] [µg/mL] | MIC (Escherichia coli [7]) [µg/mL] | MIC (Escherichia coli [8]) [µg/mL] | inhibition (Bacteria) [%] | IC50 [9] [µM] | IC50 [10] [µM] | IC50 [11] | IC50 [12] [µM] | IC50 [13] [µM] | IC50 [14] [µM] | IC50 [15] [µM] |
| --- | --- | --- | --- | --- | --- | --- | --- | --- | --- | --- | --- | --- | --- | --- | --- | --- |
| O=C(O)C[C@@H]1CC[C@H](NC(=O)Cc2cccs2)B(O)O1 [VABORBACTAM] | > 64 | > 400 | > 64 | > 64 | > 400 | > 64 | > 64 | > 64 | < 50 | – | – | – | – | – | – | – |
| NCc1ccc(C(=O)N[C@H]2Cc3cccc(C(=O)O)c3OB2O)cc1 | – | – | – | – | – | – | – | – | – | > 100 | 1 | Not Active | 0.085 | 0.03 | 2.6 | 0.029 |
